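Cultured in 96-well plates, cells were exposed to test compound for 48 hours across five concentrations. GI50 = concentration required for 50% inhibition of growth. At the TGI there is no net growth.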
Tested on: MDA-MB-468 breast
Test: NCI tumour cell line growth inhibition, 48 h

SMILES | GI50 [µM] | TGI [µM]
CCCCCCCCn1ccc2cc(NC(=O)Cn3cc(CN4CCCCC4)nn3)ccc21 | 1.67 | 3.73
CCN(CC)C1CCC(Nc2c(C(C)=O)cnc3ccc(-c4ccc(O)c(Cl)c4)cc23)CC1 (configuration not stated) | 0.871 | 15.8
CC1(C)[C@@H](OC(=O)CCC(=O)O)CC[C@]2(C)[C@H]3C(=O)C=C4[C@@H]5C[C@@](C)(C(=O)O)CC[C@]5(C)CC[C@@]4(C)[C@]3(C)CC[C@@H]12 | 78.6 | 189
Cn1cc(C2=C(c3cn(C)c4ccccc34)C(=O)NC2=O)c2ccccc21 | 0.65 | > 25
CN1C/C=C/CCOc2cccc(c2)-c2ccnc(n2)Nc2cccc(c2)C1 | 0.0366 | 0.107
Cn1c(/C=C/[N+](=O)[O-])cc2ccccc21 | 1.77 | 3.37
O=c1oc2ccc(Br)cc2c(=O)n1-c1ccc(I)cc1F | 0.547 | 2.04
COc1cc(C(=O)Nc2cc(OC)c3ccn(C)c3c2)cc2c1C[C@]1(C)CC[C@@H](O)C(C)(C)[C@H]1O2 | 0.488 | 3.01
CC1=C2C(=C[C@@](C)(COS(C)(=O)=O)[C@@H]2O)C(=O)[C@](C)(O)C12CC2 | 0.201 | 0.519
COc1ccc(N2CCN(C3=C(Cl)C(=O)c4ncccc4C3=O)CC2)cc1 | 1.84 | 3.5
COc1ccc(C2=NN(C(=O)c3cc(OC)c(OC)c(OC)c3)C(c3ccc(N(C)C)cc3)C2)cc1 (configuration not stated) | 0.236 | 0.644

— PubChem BioAssay (NCI)
